# Laboratory results: patent US7741344B2, “Process for preparing purified S-BEL and R-BEL and compositions thereof” (Washington University in St. Louis, priority 2002, dated 2010)
# Columns and labels:
# [1] = test system: cytosolic phosphatidate phosphohydrolase (PAP-1); test: Cytosolic phosphatidate phosphohydrolase activity of A-10 cell cytosol fraction; format: biochemical, rat; conditions: concentrations up to 200 μM BEL; FIG. 6A
# Experimental: Measurement of Cytosolic and Membrane-bound Phosphatidate Phosphohydrolase Activities—A-10 cells were grown to confluency, washed twice in ice-cold phosphate-buffered saline, and harvested in lysis buffer (50 mM Tris-HCl, pH 7.4 containing 0.25 M sucrose and 0.2 mM DTT). After brief sonication utilizing a Vibra-Cell VC4O sonicator (5×1 s pulses at 30% power), the lysed cell suspension was centrifuged at 100,000×g for 1 hr to separate cytosolic and membrane fractions. In some tests, A-10 cells were washed and pretreated with BEL or ethanol vehicle (as described above for tests examining [^3H]-AA liberation) before isolation of cell homogenates. […] Reactions were terminated with 900 μL of 5% acetic acid and extracted into chloroform by the method of Bligh and Dyer (38) prior to separating dipaliitoyl glycerol by TLC utilizing chloroform: methanol: water (65:35:2) as the mobile phase prior to quantification by scintillation spectrometry.
# A-10 cells plated on 100 mm dishes were washed 2× in ice-cold PBS and harvested in lysis buffer (50 mM Tris-HCl, pH 7.4 containing 0.25 M sucrose and 0.2 mM DTT). […] In panel B, intact A-10 cells were washed and pretreated with BEL or ethanol vehicle (as described in FIG. 5) before isolation of the cell homogenate and quantification of phosphatidate phosphohydrolase activity as described above. […]
# [2] = test system: iPLA2 vs. cPLA2 and SPLA2 family members; conditions: (31, 32); cited from earlier work
# [3] = test system: magnesium-dependent cytozoic phosphatidate phosphohydrolase, PAP-1; conditions: 25 μM BEL; (33, 34); cited from earlier work
# [4] = test system: cytosolic PAP-1 in McA-RH7777 rat hepatoma cells; conditions: 100 μM BEL; (17); cited from earlier work
smiles,measurement,setting,value
"O=C1OC(=CBr)CCC1c1cccc2ccccc12 (racemic) [rac-BEL, Racemic (E)-6-(bromomethylene)-3-(1-naphthalenyl)-2H-tetrahydropyran-2-one]",effect on cytosolic (PAP-1) phosphatidate phosphohydrolase,[1],lack of any effect
same,selectivity iPLA2 vs. cPLA2 and SPLA2 family members,[2],1000 fold
same,inhibition of PAP-1,[3],partially inhibit
same,inhibition of cytosolic PAP-1 activity in McA-RH7777 cells,[4],not significantly inhibited
